Results published in US20030171617A1, “3,4-Dihydroxymandelic acid alkylamides and use thereof” (priority 2000, published 2003).

What was measured:
[1] = DPPH (1,1-diphenyl-2-picrylhydrazyl) test for the removal of free radicals; format: physicochemical; details: c(test compound)/c(DPPH); DPPH 100 μmol/l in methanol; absorption at 515 nm
Procedure: The activity of the exemplary compounds as in examples 1 to 3 as free-radical scavengers was compared with that of conventional free-radical scavengers. For this purpose, the DPPH (1,1-diphenyl-2-picrylhydrazyl) test for the removal of free radicals was used.
DPPH was dissolved in methanol to a concentration of 100 μmol/l. A series of dilutions of the exemplary compounds, vitamin C, α-tocopherol and dibutylhydroxytoluene were prepared in methanol. Methanol served as the control. 2500 μl of the DPPH solution were mixed with 500 μl of each test solution and the decrease in absorption at 515 nm was read until the decrease was less than 2% per hour. The activity of the test substances as free-radical scavengers was calculated according to the following equation:
Activity as free-radical scavenger (%)=100−(absorption of the test compounds)/(absorption of the control)×100.
The activity as free-radical scavenger (%) in a series of dilutions of test compounds was used to calculate, for each test compound, the effective relative concentration EC50 (based on the starting concentration of DPPH, EC=c (test compound)/c(DPPH)) of a test compound at which 50% of the free radical DPPH had been removed.

[2] = Accelerated autoxidation of lipids by air (Rancimat apparatus), antioxidative index; format: physicochemical; details: AOI=IP(with test solution)/IP(control sample); squalene purified over alumina, stabilized with 1 ppm α-tocopherol; dry air 20 l/h
Procedure: The activity of the exemplary compounds as in examples 1 to 3 as antioxidants was compared with that of conventional antioxidants. The test system used was the accelerated autoxidation of lipids by air with or without antioxidant using the Rancimat apparatus (Rancimat is a registered trademark of Metrohm AG, Herisau, Switzerland).
The exemplary compounds, vitamin C, α-tocopherol and dibutylhydroxytoluene were dissolved in methanol or acetone, and 100 μl of each test solution were added to a 3 g preprepared oil sample. In a control sample, only solvent was added. A constant stream of dry air (20 l/h) was bubbled through the heated oil sample which contained the test solution, and the volatile oxidation products (predominantly short-chain fatty acids such as formic acid or acetic acid) were collected in a receiver containing water. The conductivity of this aqueous solution was continuously measured and documented. The oxidation of (unsaturated) fats proceeds only very slowly for some time and then suddenly increases. The time to the increase is referred to as the induction period (IP).
The following equation was used to calculate the antioxidative index (AOI):
AOI=IP(with test solution)/IP(control sample).
The results for the experiment at […] in squalene that has been purified over alumina grade N and stabilized with 1 ppm of α-tocopherol are given in table 2: […]

Row | Structure (SMILES) | EC50 (effective relative concentration at which 50% of the free radical DPPH had been removed) [1] [mol/mol] | AOI in squalene at 80° C. with 0.005% of test substance [2]
1 | CCCCC(CC)CNC(=O)C(O)c1ccc(O)c(O)c1 (stereo not drawn) [Example 1, 2-(3,4-Dihydroxyphenyl)-N-(2-ethylhexyl)-2-hydroxyacetamide] | 0.12 | 69
2 | Cc1cc(C(C)(C)C)c(O)c(C(C)(C)C)c1 [Dibutylhydroxytoluene] | 0.24 | 38
3 | O=C(NC1CCCCC1)C(O)c1ccc(O)c(O)c1 (stereo not drawn) [Example 2, N-Cyclohexyl-2-(3,4-dihydroxyphenyl)-2-hydroxyacetamide] | 0.11 | 43

Further lines, with some results ahead:

Row | EC50 (effective relative concentration at which 50% of the free radical DPPH had been removed) [1] [mol/mol] | Structure (SMILES) | AOI in squalene at 80° C. with 0.005% of test substance [2]
4 | 0.25 | Cc1c(C)c2c(c(C)c1O)CC[C@@](C)(CCC[C@H](C)CCC[C@H](C)CCCC(C)C)O2 [α-Tocopherol] | 39
5 | 0.27 | O=C1O[C@H]([C@@H](O)CO)C(O)=C1O [Vitamin C] | 0.7
6 | 0.12 | CCCCCCNC(=O)C(O)c1ccc(O)c(O)c1 (stereo not drawn) [Example 3, 2-(3,4-Dihydroxyphenyl)-N-n-hexyl-2-hydroxyacetamide] | 55
